Literature values in PMC3629230, “Permeability Enhancers Dramatically Increase Zanamivir Absolute Bioavailability in Rats: Implications for an Orally Bioavailable Influenza Treatment” (PLoS ONE, 2013).

How the values were obtained:
[1] = test system: flu strains; details: cited from earlier work
[2] = test system: pandemic flu strains; design: method as in earlier work; details: 2009 tests; cited from earlier work
[3] = test system: seasonal H1N1; design: method as in earlier work; details: 2009 tests; cited from earlier work

Compound | Resistance [1] | Strains resistant [2] [%] | Strains resistant [3] [%]
CC(=O)N[C@H]1[C@H]([C@H](O)[C@H](O)CO)OC(C(=O)O)=C[C@@H]1N=C(N)N [Zanamivir, zanamivir] | has not been observed | – | –
CCOC(=O)C1=C[C@@H](OC(CC)CC)[C@H](NC(C)=O)[C@@H](N)C1 [oseltamivir] | – | 0.5 | 99.6
